Data from patent US20170095522A1, “Compositions Containing Extracts of Curcuma SPP and Zingiber officinale Which Are Useful to Reduce Peripheral Inflammation and Pain” (INDENA S.p.A., priority 2015, published 2017).
Marks after values point to notes of the source that are not given here.

Experiments:
[1] = system: patients with grade I or II hip osteoarthritis; test: WOMAC scores (signs/symptoms of osteoarthritis) in 8-month hip osteoarthritis study; type: in vivo, human
Description: The clinical end-points (WOMAC score, Karnofsky Performance Scale Index and treadmill walking performance) were evaluated for the single agents and for the combination of the two vs. a placebo. […] 100 patients with grade I or II hip osteoarthritis, confirmed by X-ray analysis, were enrolled in the study. The patients were allowed to self-medicate with NSAIDs during the 8-month trial. […] Group C received a combination of curcumin and Zingiber officinale at the same doses as reported above for the single ingredients. The last group received a corresponding placebo. To ensure clinical homogeneity, the main location of the osteoarthritis in these subjects, and the source of most of their signs and symptoms, was in one or both hips. Primary osteoarthritis in one or both hips was diagnosed by X-ray investigation. The subjects had mild to moderate pain not adequately or completely controlled with anti-inflammatory drugs. They had to be able to perform the treadmill walking test and to understand all the questions in the WOMAC questionnaire. The questionnaire developed by the Western Ontario and McMaster Universities was applied to describe and rate the symptoms of OA. The questionnaire produces scores for the various symptoms of OA (WOMAC scores). The status of the OA signs/symptoms was evaluated by the investigator together with the patient on inclusion, and after 1 month, 4 months and 8 months treatment. The variations in the results (i.e. walking distance) were considered parametric. Non-parametric observations (e.g. the WOMAC score) were evaluated with analysis of variance (ANOVA with the Bonferroni correction). Considering the possible intra-individual and inter-individual data variations, at least 40 completing subjects were needed for this type of study (at least 40 subjects who completed the entire follow-up period in each group). This numerical value was established, on the basis of our previous study, with a view to eliminating spontaneous variability and time variations. OA and its related signs/symptoms, even under conditions of relative stability, may have a spontaneous degree of variability associated with periods of improvement. Clinical variations in signs/symptoms, walking distance, oedema and the Karnofsky scale may be due to various clinical and non-clinical (i.e.

[2] = cited from earlier work
[3] = system: patients with grade I or II hip osteoarthritis; test: Karnofsky Performance Scale Index in 8-month hip osteoarthritis study; type: in vivo, human
Description: The clinical end-points (WOMAC score, Karnofsky Performance Scale Index and treadmill walking performance) were evaluated for the single agents and for the combination of the two vs. a placebo. […] 100 patients with grade I or II hip osteoarthritis, confirmed by X-ray analysis, were enrolled in the study. The patients were allowed to self-medicate with NSAIDs during the 8-month trial. […] Group C received a combination of curcumin and Zingiber officinale at the same doses as reported above for the single ingredients. The last group received a corresponding placebo. To ensure clinical homogeneity, the main location of the osteoarthritis in these subjects, and the source of most of their signs and symptoms, was in one or both hips. Primary osteoarthritis in one or both hips was diagnosed by X-ray investigation. The subjects had mild to moderate pain not adequately or completely controlled with anti-inflammatory drugs. They had to be able to perform the treadmill walking test and to understand all the questions in the WOMAC questionnaire. The Karnofsky Performance Scale Index was used to classify the patients in terms of functional impairment. The Karnofsky Performance Scale Index can be used to compare the effectiveness of different treatments and to assess the prognosis in individual patients. The lower the Karnofsky score, the worse the patient's functional impairment. The variations in the results (i.e. walking distance) were considered parametric. Non-parametric observations (e.g. the WOMAC score) were evaluated with analysis of variance (ANOVA with the Bonferroni correction). Considering the possible intra-individual and inter-individual data variations, at least 40 completing subjects were needed for this type of study (at least 40 subjects who completed the entire follow-up period in each group). This numerical value was established, on the basis of our previous study, with a view to eliminating spontaneous variability and time variations. OA and its related signs/symptoms, even under conditions of relative stability, may have a spontaneous degree of variability associated with periods of improvement. Clinical variations in signs/symptoms, walking distance, oedema and the Karnofsky scale may be due to various clinical and non-clinical (i.e.

[4] = preliminary clinical trials; oral; cited from earlier work
[5] = system: patients with grade I or II hip osteoarthritis; test: Treadmill walking test, total pain-free distance; type: in vivo, human; details: 3 km/hour, 10% incline
Description: The clinical end-points (WOMAC score, Karnofsky Performance Scale Index and treadmill walking performance) were evaluated for the single agents and for the combination of the two vs. a placebo. […] 100 patients with grade I or II hip osteoarthritis, confirmed by X-ray analysis, were enrolled in the study. The patients were allowed to self-medicate with NSAIDs during the 8-month trial. […] Group C received a combination of curcumin and Zingiber officinale at the same doses as reported above for the single ingredients. The last group received a corresponding placebo. To ensure clinical homogeneity, the main location of the osteoarthritis in these subjects, and the source of most of their signs and symptoms, was in one or both hips. Primary osteoarthritis in one or both hips was diagnosed by X-ray investigation. The subjects had mild to moderate pain not adequately or completely controlled with anti-inflammatory drugs. They had to be able to perform the treadmill walking test and to understand all the questions in the WOMAC questionnaire. […] On inclusion and after 1 month, 4 months and 8 months treatment, the patient's performance was evaluated with the treadmill test at a speed of 3 km/h and an incline of 10%. The total pain-free distance was recorded. […] Non-parametric observations (e.g. the WOMAC score) were evaluated with analysis of variance (ANOVA with the Bonferroni correction). […]

SMILES: COc1cc(/C=C/C(=O)CC(=O)/C=C/c2ccc(O)c(OC)c2)ccc1O [Curcumin, curcumin]
- WOMAC Pain mean score ([1]; 1 month treatment): 13
- WOMAC Physical functions mean score ([1]; 1 month treatment): 45
- WOMAC Stiffness mean score ([1]; 1 month treatment): 5
- WOMAC Pain mean score ([1]; R = recruitment (baseline)): 16
- WOMAC Physical functions mean score ([1]; R = recruitment (baseline)): 55
- WOMAC Stiffness mean score ([1]; R = recruitment (baseline)): 7
- WOMAC pain scores, result in words ([1]; after one month's administration, p<0.05): fell significantly
- Solubility in water and fats [2]: poorly soluble
- Karnofsky scale (median) ([3]; 1 month treatment, curcumin 1000 mg/day and/or Zingiber officinale extract 100 mg/day): 77
- Karnofsky scale (median) ([3]; 4 months treatment, curcumin 1000 mg/day and/or Zingiber officinale extract 100 mg/day): 80*
- Karnofsky Scale scores, result in words ([3]; 8-month study): significantly improved
- Karnofsky scale (median) ([3]; 8 months treatment, curcumin 1000 mg/day and/or Zingiber officinale extract 100 mg/day): 81*
- Karnofsky scale (median) ([3]; Inclusion (baseline), hip osteoarthritis patients): 73
- Bioavailability [4]: low bioavailability
- Treadmill distance (median), total pain-free distance ([5]; 1 month treatment): 100*
- Treadmill distance (median), total pain-free distance ([5]; R = recruitment (baseline)): 77
